Test results published in article PMC9274004, “Deciphering the Molecular Interaction Between the Adhesion G Protein-Coupled Receptor ADGRV1 and its PDZ-Containing Regulator PDZD7” (Frontiers in Molecular Biosciences, 2022).
Where no end group is shown, it is not given here.

Molecular target: T1, PDZD7 P1P2 (81-313) (Mus musculus, UniProt E9Q9W7)
T1 construct: PDZ2ext (206-313), P1P2 (81-313); GST (followed by TEV site) (N, cleaved yes); made in house; host or cells: E. coli BL21 DE3
Assay: Fluorescence titration of PDZ tandem P1P2
Type: binding, murine
Details: fluorescence titration (Trp, ex 295 nm, em 346-349 nm); P1P2 2 µM in Phosphate Buffer pH 6.6 (50 mM); error from quality of fit
Method: Fluorescence titrations were performed on a Jasco V-730 spectrometer using quartz cell 109.004F-QS (Hellma Analytics) with an optical path of 10 mm and with thick side to reduce the inner filter effect. PDZ1ext and P1P2 were prepared in Phosphate Buffer pH 6.6 (50 mM) at 6 and 2 µM respectively, while PDZ2ext was prepared in Tris HCl pH 7.5 (50 mM) at 5 µM. Variations in the quantum yield of fluorescence of tryptophans from the sample were monitored upon progressive addition of buffered ADGRV1pbm peptide. After peptide addition, the sample is homogenized by in-spectrometer magnet agitation for 30 s. The sample is left to rest for an additional 60 s before measurement. Excitation is set at 295 nm and fluorescence was measured at the maximum emission wavelength (346-349 nm) of the unbound form with a 5 nm bandwidth for both. Titration curves were fitted using the following formula: y = Fp∗p0+(Fx-Fp)∗0.5∗(R∗I0+(1-R)∗x + K-((R∗I0+(1-R)∗x + K)^2-4∗R∗(I0-x)∗x)^1/2), where p0 is the initial protein concentration, I0 the peptide stock concentration, R the p0/I0 ratio, x the volume of added peptide in µl, Fp the fluorescence of PDZ constructs, Fx the fluorescence of the complex, and K the Kd. […]
We monitored the interaction between PDZD7 constructs and a peptide (ADGRV1pbm) corresponding to the last 13 residues of ADGRV1, encompassing its PBM (sequence VELRRIPIADTHL-COOH; PBM underlined). […]

T1 sequence (E9Q9W7 81-313): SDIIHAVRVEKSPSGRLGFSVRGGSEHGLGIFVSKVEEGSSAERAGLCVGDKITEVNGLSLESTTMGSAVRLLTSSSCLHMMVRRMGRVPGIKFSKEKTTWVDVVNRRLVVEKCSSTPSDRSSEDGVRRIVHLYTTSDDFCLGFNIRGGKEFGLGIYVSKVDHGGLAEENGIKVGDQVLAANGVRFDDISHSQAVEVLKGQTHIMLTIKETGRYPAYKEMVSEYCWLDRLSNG

Sequence: VELRRIPIADTHL [ADGRV1pbm]
- Kd: 1600 ± 300 nM
